Source: PubChem BioAssay (NCI)
Values joined by “and” are separate entries in the source; they are usually repeats but may differ in a detail not shown here. Identical values can stand only once.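 Following 48 hours of exposure in 96-well plates, responses at five concentrations were used to interpolate endpoints linearly. Here, GI50 denotes the concentration required for 50% inhibition of growth. TGI is the concentration that stops growth completely.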

How the values were obtained:
Assay in all cases: DTP human tumour cell line panel, 48 h
[1] = tested on: ACHN renal
[2] = tested on: HL-60(TB) leukemia
[3] = tested on: HOP-92 NSCLC
[4] = tested on: LOX IMVI melanoma
[5] = tested on: MCF7 breast
[6] = tested on: MDA-MB-231 breast
[7] = tested on: NCI-H460 lung
[8] = tested on: SN12C renal
[9] = tested on: SR leukemia
[10] = tested on: TK-10 renal

## CC1C(C)N(C(=O)CCl)c2ccccc2N1C(=O)CCl (stereo unspecified)
[1]
  GI50: 0.309 µM
  TGI: 0.783 µM
[2]
  GI50: 0.211 µM
  TGI: 0.535 µM
[3]
  GI50: 0.709 µM
  TGI: 1.84 µM
[4]
  GI50: 0.235 µM
  TGI: 0.729 µM
[5]
  GI50: 0.318 µM
  TGI: 1.6 µM
[6]
  GI50: 1.18 µM
  TGI: 3.6 µM
[7]
  GI50: 1.74 µM
  TGI: 3.98 µM
[8]
  GI50: 0.793 µM
  TGI: 3.05 µM
[9]
  GI50: 0.396 µM
  TGI: 2.02 µM
[10]
  GI50: 0.78 µM
  TGI: 2.04 µM

## CC(=O)NC(C)(C)C1CCC(C)=C(c2ccccc2)C1 (stereo unspecified)
[2]
  TGI: > 100 µM
[3]
  TGI: 68.4 µM
[4]
  TGI: > 100 µM
[5]
  TGI: > 100 µM
[6]
  TGI: > 100 µM
[7]
  TGI: > 100 µM
[8]
  TGI: > 100 µM
[9]
  TGI: > 100 µM
[10]
  TGI: > 100 µM

## CCc1ccc(CCC(=O)Nc2ncc(Cc3ccc(Cl)cc3)s2)o1
[1]
  GI50: 0.66 µM
  TGI: > 100 µM
[2]
  GI50: 0.289 µM
  TGI: 1.93 µM
[3]
  GI50: 4.61 µM
  TGI: > 100 µM
[4]
  GI50: 1.02 µM
  TGI: > 100 µM
[5]
  GI50: 0.328 µM
  TGI: > 100 µM
[6]
  GI50: 0.699 µM
  TGI: > 100 µM
[7]
  GI50: 0.335 µM
  TGI: > 100 µM
[8]
  GI50: 0.753 µM
  TGI: > 100 µM
[9]
  GI50: 0.419 µM
  TGI: > 100 µM
[10]
  TGI: > 100 µM

## CC1=C2[C@@H](CC1)[C@]1(C)O[C@@](C(C)C)(C[C@H]1OC(=O)CO)[C@H]2OC(=O)C1CC1c1ccccc1 (stereo partly specified)
[1]
  GI50: 3.05 µM
  TGI: 20.9 µM
[2]
  GI50: 15 µM
  TGI: 38 µM
[3]
  GI50: 11.8 µM
  TGI: 24.6 µM
[4]
  GI50: 14.4 µM
  TGI: 31.1 µM
[5]
  GI50: 8.98 µM
  TGI: 27.8 µM
[6]
  GI50: 15.5 µM
  TGI: 33.7 µM
[7]
  GI50: 14.5 µM
  TGI: 32.2 µM
[8]
  GI50: 9.36 µM
  TGI: 27.6 µM
[9]
  GI50: 10.9 µM
  TGI: 34.9 µM
[10]
  GI50: 16.6 µM
  TGI: 31.6 µM

## COC(=O)C1=C(O)[C@H](C(=O)OC)C2(O)C(C(=O)OC)[C@H](c3ccc(OC(=O)C(C)c4ccc(CC(C)C)cc4)cc3)C[C@@H]1[C@@H]2C(=O)OC (stereo partly specified)
[1]
  GI50: 12 µM
  TGI: 31.3 µM
[3]
  GI50: 32.8 µM
  TGI: > 50 µM
[4]
  GI50: 6.06 µM
  TGI: 14.9 µM
[5]
  GI50: 8.18 µM
  TGI: > 50 µM
[6]
  GI50: 5.52 µM
  TGI: 22.8 µM
[7]
  GI50: 13.2 µM
  TGI: > 50 µM
[8]
  GI50: 9.58 µM
  TGI: 22.9 µM
[9]
  GI50: 0.754 µM
  TGI: > 50 µM
[10]
  GI50: 30.6 µM
  TGI: > 50 µM

## Cc1ccccc1NC(=O)c1sc2nc(C)c(C(=O)/C=C/c3ccccc3)cc2c1N
[1]
  GI50: 0.927 µM
  TGI: 1.86 µM
[2]
  GI50: 0.922 µM
  TGI: 2.72 µM
[3]
  GI50: 1.48 µM
  TGI: 7.26 µM
[4]
  GI50: 0.864 µM
  TGI: 1.62 µM
[5]
  GI50: 1.5 µM
  TGI: 8.69 µM
[6]
  GI50: 1.8 µM
  TGI: 11 µM
[7]
  GI50: 1.25 µM
  TGI: 3.22 µM
[8]
  GI50: 1.07 µM
  TGI: 2.5 µM
[9]
  GI50: 1.13 µM
  TGI: > 50 µM
[10]
  GI50: 1.55 µM
  TGI: 6.04 µM

## COc1cc(Nc2ncc(-c3ccccc3)o2)cc(OC)c1
[1]
  GI50: 17.4 µM
  TGI: > 25 µM
[2]
  GI50: > 25 µM
  TGI: > 25 µM
[3]
  GI50: > 25 µM
  TGI: > 25 µM
[4]
  GI50: > 25 µM
  TGI: > 25 µM
[5]
  GI50: > 25 µM
  TGI: > 25 µM
[6]
  GI50: > 25 µM
  TGI: > 25 µM
[7]
  GI50: > 20.4 µM
  TGI: > 25 µM
[8]
  GI50: > 25 µM
  TGI: > 25 µM
[9]
  GI50: > 17.7 µM
  TGI: > 25 µM
[10]
  GI50: > 25 µM
  TGI: > 25 µM

## COc1ccc(C/C(=C(\C)c2ccc(OCCN3CCCC3)cc2)c2ccc(OCCN3CCCC3)cc2)cc1
[1]
  GI50: 1.74 µM
  TGI: 3.12 µM
[2]
  GI50: 1.67 µM
  TGI: 3.63 µM
[3]
  GI50: 1.96 µM
  TGI: 8.25 µM
[4]
  GI50: 1.73 µM
  TGI: 3.18 µM
[5]
  GI50: 1.6 µM
  TGI: 3.1 µM
[6]
  GI50: 1.73 µM
  TGI: 3.37 µM
[7]
  GI50: 2.08 µM
  TGI: 4.17 µM
[8]
  GI50: 1.67 µM
  TGI: 3.2 µM
[9]
  GI50: 0.565 µM
  TGI: 3.47 µM
[10]
  GI50: 1.55 µM
  TGI: 3.02 µM

## COc1ccc(Cc2coc3ccccc3c2=O)cc1OC
[1]
  TGI: > 100 µM
[2]
  TGI: > 100 µM
[3]
  TGI: > 100 µM
[4]
  TGI: > 100 µM
[5]
  TGI: > 100 µM
[6]
  TGI: > 100 µM
[7]
  TGI: > 100 µM
[8]
  TGI: > 100 µM
[9]
  TGI: > 100 µM
[10]
  TGI: > 100 µM

## CNC(=O)c1cc(Oc2ccc(NC(=O)Nc3ccc(Cl)c(C(F)(F)F)c3)c(F)c2)ccn1
[1]
  GI50: 3.29 µM and 2.88 µM
  TGI: > 44.9 µM
[2]
  GI50: 0.518 µM and 0.539 µM
  TGI: 2.68 µM and 4.1 µM
[3]
  GI50: 0.822 µM and 0.74 µM
  TGI: 5.55 µM and 5.15 µM
[4]
  GI50: 1.12 µM and 0.787 µM
  TGI: 6.93 µM and > 10 µM
[5]
  GI50: 2.12 µM and 2.29 µM
  TGI: 6.88 µM and 9.02 µM
[6]
  GI50: 1.22 µM and 1.26 µM
  TGI: 4.44 µM and 4.92 µM
[7]
  GI50: 2.67 µM and 2.86 µM
  TGI: 9.42 µM and > 10 µM
[8]
  GI50: 2.35 µM and 2.24 µM
  TGI: 12.1 µM and > 10 µM
[9]
  GI50: 1.9 µM and 2.63 µM
  TGI: 4.38 µM and > 10 µM
[10]
  GI50: 3.5 µM and 3.03 µM
  TGI: 27.8 µM and > 10 µM

## COc1ncc(Nc2ncc([C@@H](C)N3CCN(S(C)(=O)=O)CC3)cc2-c2nc(C)nc(N)n2)cc1F
[1]
  GI50: 0.0651 µM
  TGI: > 100 µM
[2]
  GI50: 0.0214 µM
  TGI: > 57.3 µM
[3]
  GI50: < 0.01 µM
  TGI: 1.19 µM
[4]
  GI50: 0.32 µM
  TGI: 12.5 µM
[5]
  GI50: 0.0147 µM
  TGI: > 100 µM
[6]
  GI50: 1.59 µM
  TGI: 13.9 µM
[7]
  GI50: 0.135 µM
  TGI: > 100 µM
[8]
  GI50: 0.0686 µM
  TGI: > 33.6 µM
[9]
  GI50: 4.83 µM
  TGI: > 61.5 µM
[10]
  GI50: 0.0222 µM
  TGI: 1.22 µM

## O=C(/C=C\c1ccc([N+](=O)[O-])cc1)c1ccccc(=O)c1O
[1]
  TGI: 2.85 µM
[2]
  TGI: 1.63 µM
[3]
  TGI: 7.77 µM
[4]
  TGI: 2.86 µM
[5]
  TGI: 2.64 µM
[6]
  TGI: 17.1 µM
[7]
  TGI: 3.64 µM
[8]
  TGI: > 100 µM
[9]
  TGI: > 100 µM
[10]
  TGI: 8.91 µM

## CC1(C)CNc2cc(NC(=O)c3cccnc3NCc3ccncc3)ccc21
[1]
  GI50: 10.6 µM
  TGI: > 100 µM
[2]
  GI50: 28 µM
  TGI: 81.5 µM
[3]
  GI50: 19.4 µM
  TGI: 80.6 µM
[4]
  GI50: 23.3 µM
  TGI: > 100 µM
[5]
  GI50: 23 µM
  TGI: > 100 µM
[6]
  GI50: 29.2 µM
  TGI: > 100 µM
[7]
  GI50: 32.3 µM
  TGI: > 100 µM
[8]
  GI50: 25.5 µM
  TGI: > 100 µM
[9]
  GI50: 26.1 µM
  TGI: > 100 µM
[10]
  GI50: 43.1 µM
  TGI: > 100 µM
